Measurements published in article PMC4033659 (Journal of Medicinal Chemistry, 2014).

Assay: In vivo PK in rats after ip administration
Settings: rat, ip 10 mg/kg, at Tmax 30 min

Compound | brain (maximum concentration) | plasma (maximum concentration)
COc1cc(C(=O)O)ccc1OCCCCOc1ccc(C(=O)CC(C)C)c(O)c1C [Compound 44, 4-{4-[3-Hydroxy-2-methyl-4-(3-methylbutanoyl)phenoxy]butoxy}-3-methoxybenzoic Acid] | 0.23 ± 0.10 µM | 10.57 ± 2.52 µM
Cc1c(OCCCCOc2ccc(F)c(C(=O)O)c2)ccc(C(=O)C(C)C)c1O [Compound 65, 2-Fluoro-5-(4-(3-hydroxy-4-isobutyryl-2-methylphenoxy)butoxy)benzoic Acid] |  | 5.44 ± 2.92 µM
CCCC(=O)c1ccc(OCCCCOc2cc(C(=O)O)ccc2OC)c(C)c1O [Compound 68, 3-(4-(4-Butyryl-3-hydroxy-2-methylphenoxy)butoxy)-4-methoxybenzoic Acid] |  | 2.18 ± 0.58 µM
COc1ccc(C(=O)O)cc1OCCCCOc1ccc(C(=O)CC(C)(C)C)c(O)c1C [Compound 72, 3-(4-(4-(3,3-Dimethylbutanoyl)-3-hydroxy-2-methylphenoxy)butoxy)-4-methoxybenzoic Acid] |  | 2.44 ± 2.19 µM
Cc1c(OCCCCOc2ccc(F)c(C(=O)O)c2)ccc(C(=O)CC(C)(C)C)c1O [Compound 75, 5-(4-(4-(3,3-Dimethylbutanoyl)-3-hydroxy-2-methylphenoxy)butoxy)-2-fluorobenzoic Acid] | 0.22 ± 0.04 µM | 6.52 ± 0.54 µM
